Assays:
Details in all cases: assay detail: Kinobeads competition in P. falciparum blood-stage lysate
UniProt C6KSQ1 = experiment: apparent dissociation constant (Kd app) from Kinobeads competition
UniProt Q8IKQ9 = experiment: as above
UniProt Q8IJR8 = experiment: as above
UniProt Q8I5H9 = experiment: as above
UniProt Q8IEL1 = experiment: as above
UniProt Q8IAZ3 = experiment: as above
UniProt Q8I5D4 = experiment: as above
UniProt Q8I5E3 = experiment: as above
UniProt Q8IE41 = experiment: as above
UniProt Q8IAM4 = experiment: as above
UniProt C0H4R8 = experiment: as above
A0A144A0U7 = experiment: as above
UniProt Q8I442 = experiment: as above
UniProt Q8IIW6 = experiment: as above
UniProt O77344 = experiment: as above
UniProt C6KSZ6 = experiment: as above
UniProt Q7KQK0 = experiment: as above
UniProt Q9U0K8 = experiment: as above
UniProt Q8I535 = experiment: as above
UniProt Q8I3I5 = experiment: IC50 for competition of protein binding to Kinobeads
UniProt Q8IIH4 = experiment: as above
UniProt Q8I5K4 = experiment: as above
UniProt Q8IIK8 = experiment: as above
UniProt C6S3E1 = experiment: as above
UniProt Q8ID85 = experiment: as above
UniProt Q8IDG9 = experiment: as above
UniProt O96236 = experiment: as above
UniProt Q8IBT7 = experiment: as above
UniProt Q8I2B1 = experiment: as above
UniProt Q8I603 = experiment: as above
UniProt Q8IJQ1 = experiment: as above
UniProt Q8IKZ6 = experiment: as above
UniProt Q8IJX3 = experiment: as above
UniProt Q7K6B1 = experiment: as above
UniProt Q8II01 = experiment: as above
UniProt Q8IE84 = experiment: as above
UniProt Q8I3Z5 = experiment: as above
UniProt C6KT82 = experiment: as above
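For IC50 in this document: native unpurified kinases from lysate captured on beads bearing immobilized kinase inhibitors, with bead-bound kinases quantified by mass spectrometry across compound doses.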

UniProt Q8I3Z5, sequence (Q8I3Z5 whole entry): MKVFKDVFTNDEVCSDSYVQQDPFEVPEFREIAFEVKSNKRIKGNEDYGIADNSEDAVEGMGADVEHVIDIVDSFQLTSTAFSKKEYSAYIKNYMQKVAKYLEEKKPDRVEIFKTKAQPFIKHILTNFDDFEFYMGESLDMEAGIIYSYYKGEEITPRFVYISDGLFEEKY

Q: What does the source list for O=c1[nH]c2ccc(Cl)cc2c(NC2CN3CCC2CC3)c1-c1nc2ccccc2[nH]1 (stereo not drawn) [CHIR-124]?
A: Kd (UniProt C6KSQ1): 0.168 µM; Kd (UniProt Q8IKQ9): 15.3 µM; Kd (UniProt Q8IJR8): 0.314 µM; Kd (UniProt Q8I5H9): 10.3 µM; Kd (UniProt Q8IEL1): 1.9 µM; Kd (UniProt Q8IAZ3): 9.02 µM; Kd (UniProt Q8I5D4): 5.65 µM; Kd (UniProt Q8I5E3): 7.57 µM; Kd (UniProt Q8IE41): 0.239 µM; Kd (UniProt Q8IAM4): 7.66 µM; Kd (UniProt C0H4R8): 4.84 µM; Kd (A0A144A0U7): 7.53 µM; Kd (UniProt Q8I442): 7.1 µM; Kd (UniProt Q8IIW6): 0.181 µM; Kd (UniProt O77344): 1.28 µM; Kd (UniProt C6KSZ6): 1.4 µM; Kd (UniProt Q7KQK0): 0.621 µM; Kd (UniProt Q9U0K8): 4.29 µM; Kd (UniProt Q8I535): 0.0455 µM; IC50 (UniProt Q8I3I5): > 20 µM; IC50 (UniProt Q8IIH4): > 20 µM; IC50 (UniProt Q8I5K4): > 20 µM; IC50 (UniProt Q8IIK8): > 20 µM; IC50 (UniProt C6S3E1): > 20 µM; IC50 (UniProt Q8ID85): > 20 µM; IC50 (UniProt Q8IDG9): > 20 µM; IC50 (UniProt O96236): > 20 µM; IC50 (UniProt Q8IBT7): > 20 µM; IC50 (UniProt Q8I2B1): > 20 µM; IC50 (UniProt Q8I603): > 20 µM; IC50 (UniProt Q8IJQ1): > 20 µM; IC50 (UniProt Q8IKZ6): > 20 µM; IC50 (UniProt Q8IJX3): > 20 µM; IC50 (UniProt Q7K6B1): > 20 µM; IC50 (UniProt Q8II01): > 20 µM; IC50 (UniProt Q8IE84): > 20 µM; IC50 (UniProt Q8I3Z5): > 20 µM; IC50 (UniProt C6KT82): > 20 µM

Source: the supplement of paper PMC13386468
